The values that follow come from patent publication US20110294794A1, “TREATMENT OF PROTEINOPATHIES USING A FARNESYL TRANSFERASE INHIBITOR” (Link Medicine Corporation, priority 2008, published 2011).

Structures are written as SMILES. “Also recorded” adds a separate entry of the source. Where two headings read alike, the source gives them in different places.

The subject of one data set is α-synuclein. As to the kind of experiment: Masliah D-line human WT α-synuclein transgenic mouse, α-synuclein immunoreactivity / ELISA. As to conditions: for number of α-synuclein positive neurons: lower-dose trial (FIG. 2B); for levels of α-synuclein in the hippocampus / α-synuclein inclusions vs. transgenic animals administered vehicle alone: α-synuclein transgenic mice. The format is in vivo. As for the experimental part:
Animals and treatments: Male and female human WT alpha-synuclein over-expressing transgenic mice^32 at 6 months of age were given vehicle (10% beta-cyclodextrin) or LNK-754-TS (0.09, 0.9 and 9 mg/kg) per oral gavage twice daily for 3 months or animals at 7 months of age were given vehicle (2.5% beta-cyclodextrin) or LNK-754-TS (2 mg/kg) once every three days for 3 months. Male and female TAU transgenic mice expressing TAU441 bearing the missense mutations V337M^50 and R406W under the control of the murine Thy-1 promoter with a CB6xC57BL/6 background were 5 months old at the time when the oral treatment for three months with LNK-754-TS (0.9 and 0.09 mg/kg) as well as vehicle (2.5% beta-cyclodextrin) was started. Female human APP/PS1 (APP (London V7171)/PS1(A246E)) over-expressing transgenic mice were treated with LNK-754-TS (0.9 mg/kg) or vehicle (2.5% beta-cyclodextrin) for 2 months or 12 days.
Immunohistochemistry and quantification of stained cells: For evaluation of α-synuclein immunoreactivity (IR), 5 sagittal cryo-cut sections (10 μm slice thickness) from five different layers were used for counting of IR cells in the cortex and hippocampus. Brain sections were stained with a monoclonal human α-synuclein specific antibody (Alexis®; Cat# 804-258-L001; dilution 1:5), followed by a secondary Ab Cy 2-Goat Anti-Rat (Jackson ImmunoResearch®; dilution 1:200). IR positive cells were quantified using specialized image analysis software (Image Pro Plus, version 4.5.1.29). For Tau transgenic animals, 5 μm thick coronal paraffin sections were stained with the monoclonal mouse anti-human TAU-antibodies (AT180—1:100; HT—1:500) and visualized using an anti-mouse Cy3 secondary antibody (1:500, Jackson laboratories®). Images were evaluated with ImageProPlus (version 6.2) image analysis software. For APP/PS1 transgenic animals sagittal hemisections (40 μm) were collected and processed for Aβ immunohistochemistry using an 6E10 antibody, Thioflavin-S staining Primary antibodies were detected by the ABC method.
ELISA quantification of α-Synuclein in the α-Synuclein transgenic animals: Brain homogenate was centrifuged and the supernatant saved as fraction F1. The pellet was washed then resuspended and saved as fraction F2. Plates (Nunc, 464718) were coated with SYN-1 (1:1000, BD Transduction Labs, 610787). Monomeric recombinant α-synuclein was included as an internal standard. Biotinylated antibody FL-140 (1:300, Santa Cruz Biotechnology, sc-10717-B) and ExtrAvidin-Alkaline phosphatase (3:5000, Sigma, E2636) was added followed by pNPP substrate solution (Sigma, N1891). Raw absorbance (405 nm) was then normalized to the total protein concentration of each sample. In the APP/PS1 transgenic animal, brains were homogenized and the supernatant, Faction 1, was separated from the pellet. The pellets were further processed with addition of NP40 and Triton X-100. The supernatant was separated from the pellet as the insoluble membrane, Fraction 2, and was dissolved in 8M Guanidine. To quantify the amount of human Aβ-40 and Aβ-42, ELISA kits were used (The Genetics Company, Zurich, Switzerland).
In FIG. 2 is shown efficacy data for LNK-754-TS in the Masliah D-line transgenic α-synuclein mouse (an accepted model of synucleinopathies). Two trials are shown, the first (FIG. 2A) at higher doses of LNK-754-TS: 45 mg/kg and 9 mg/kg. […] The second trial (FIG. 2B) explores the low dose range for efficacy in the α-synuclein models. […]
After dosing with LNK-754-TS for three months (twice daily at 0.09 mg/kg or 0.9 mg/kg), α-synuclein accumulation in the brain was analyzed by immunohistochemical (human specific α-synuclein immunoreactivity) and biochemical (α-synuclein ELISA) means. […]
(In general: ELISA stands for enzyme-linked immunosorbent assay.)

Data set [1] addresses T1, GGTase (Homo sapiens, UniProt P49354+P53609). In words: In vitro GGTase inhibition by LNK-754 (Table 5A). The format is biochemical. The note with it: general statement. The text has this:
(§1) The selectivity of LNK-754 for FTase over GGTAse is shown below in Table 5A.

The subject of data set [2] is GGTase. In words: In vitro GGTase inhibition by LNK-754 (Table 5A). The data set is classed as biochemical.
Description: as §1

The test system of data set [3] is 3T3 H-ras (61L) xenograft tumor. As to conditions: continuous infusion, cited from earlier work.
A further data set relates to LC3-II. In words: LC3-II protein level (autophagic flux) in SH-SY5Y cells with or without bafilomycin A1. The data set is classed as cell-based, human. The note with it: bafilomycin A1 (10 nM) alone, without test compound. An excerpt: Data are represented as mean+/−SEM with statistical significance by paired student's t-test (n=4, p<0.05).
The observed increase in LC3-positive autophagosomes could result, in principle, from either an increased flux through the autophagy pathway or decreased autophagosome degradation (Pankiv, S., et al. J Biol Chem 282, 24131-24145 (2007); Kamada, Y., et al. J Cell Biol 150, 1507-1513 (2000)). […] In order to ascertain an increase in autophagic flux, cells were co-treated with LNK-754-TS and an inhibitor of autophagosome-lysosome fusion, bafilomycin A1 (10 nM). Bafilomycin treatment alone caused a 100% increase in the amount of LC3-II, consistent with the fact that it inhibits autophagosome degradation (FIG. 8c).
(§2) The mechanism of autophagy stimulation by LNK-754-TS appears distinct from that of the drug rapamycin. Rapamycin is a well-characterized autophagy stimulator that acts through inhibition of mTOR, a kinase involved in nutrient signaling and regulation of cell growth and survival. […] To further contrast the mechanism of autophagy stimulation by LNK-754-TS to that of rapamycin, a collection of mRNA transcripts of autophagy proteins were measured (FIG. 8d). Selected mRNAs from untreated SH-SY5Y cells were compared to mRNAs from cells treated with LNK-754-TS (100 nM), tipifarnib (100 nM), or rapamycin (1 μM).

Data set [4] is described as follows: Pharmacokinetics of Zarnestra in C57BL/6 mice, oral administration. The data set is classed as in vivo, mouse. The note with it: 5 mg/kg p.o. single dose. As for the experimental part: LLOQ: brain 4 ng/g; plasma 50 ng/ml.
The pharmacokinetic profiles of LNK-754-TS and Zarnestra® were analyzed using methods known in the art. The results are shown in FIGS. 13-14 and the tables below.

The next data set deals with LC3 mRNA. As to the kind of experiment: LC3 mRNA (qPCR) in differentiated SH-SY5Y cells. The data set is classed as cell-based, human. The note with it: 100 nM, 72 hr. As for the experimental part: (§3) Cell culture and immunocytochemistry: SH-SY5Y cells were grown in DMEM medium supplemented with 10% FBS and 1% pen/strep at 37° C. and 5% CO2. Cells were differentiated with 10 μM retinoic acid for 48 hr, then treated with the either rapamycin (100 nM or 1 μM) or with 100 nM of either LNK-754-TS or Tipifarnib for 48-72 hr. Cells were then fixed with 4% paraformaldehyde and stained for LC3 (Novus biological, NB100-2331, dilution 1:800) followed by secondary Alexa-564 anti-Rabbit (A-11011).
(§4) Quantitative real-time PCR: Gene expression profiles were done by qPCR on series of known autophagy genes. RNA was extracted with Tri-reagent (Sigma), and cDNAs generated using iScript (Biorad). qPCR analysis was carried out in a 96 well plate using an iCycler (BioRad, Hercules, Calif.), and iQ SYBR Green Supermix (Biorad) according to the manufacturer's specifications.
Such increases in LC3 mRNA levels are associated in the literature with stimulation of macroautophagy. This supports the hypothesis that at doses as low as 1 nM in this in vitro system there is stimulation of autophagy in these cells.
(§5) Autophagy was measured in a neuroblastoma cell culture system by three distinct approaches: quantitation of autophagy-related mRNA's, immunofluorescence microscopy of autophagosomes, and biochemical detection of the microtubule-associated protein 1 light chain 3 (LC3) a key protein that is required for autophagosome formation. Differentiated human neuroblastoma cells (SH-SY5Y) were treated for 72 hr with LNK-754-TS (0.01-100 nM), Zarnestra® (also referred to herein as tipifarnib) (100 nM) or rapamycin (1 μM).

Another data set relates to LC3. In words: Punctate LC3 immunostaining in SH-SY5Y cells. The data set is classed as cell-based, human. As to conditions: 100 nM (FIG. 8b). As for the experimental part: as §3, §5
The test system of another data set is Atg1. As to the kind of experiment: mRNA levels of autophagy-related genes (Atg1) in SH-SY5Y cells. The data set is classed as cell-based, human. As to conditions: 100 nM (FIG. 8d). As for the experimental part:
as §4, §2

Data set [5] has as its target T1, GGTase. As to conditions: general statement; cited from earlier work.

With `C#Cc1cccc(-c2cc(=O)n(C)c3ccc([C@](O)(c4ccc(Cl)cc4)c4cncn4C)cc23)c1` [LNK-754, (R)-6-[(4-chlorophenyl)-hydroxyl-(1-methyl-1-H-imidazol-5-yl)-methyl]-4-(3-ethynylphenyl)-1-methyl-2-(1H)-quinonlinone], the “number of α-synuclein positive neurons” value in the data set with α-synuclein (0.09 mg/kg) and in the data set with α-synuclein (0.9 mg/kg) was “significantly lowered” in each case. The “number of α-synuclein positive neurons in the brain” value with α-synuclein (9 mg/kg PO BID 3 months, higher-dose trial (FIG. 2A)) is listed as “significantly lower”; with α-synuclein (45 mg/kg PO BID 3 months, higher-dose trial (FIG. 2A)), “did not significantly lower; also recorded: not found to significantly lower”; with α-synuclein (lower doses, 0.09 mg/kg to 9 mg/kg (FIGS. 2A and 2B)), “significant reduction”. For the same molecule, the “levels of α-synuclein in the hippocampus” value in the data set on α-synuclein is “decrease”. For the same molecule, in the data set on α-synuclein, the “α-synuclein inclusions vs. transgenic animals administered vehicle alone” value was “fewer”. On GGTase [1], the GGTase inhibitory activity entry was “little to no”. Besides, the GGTI/FTI with GGTase [2] (H-Ras substrates) stood at 580; in the data set with GGTase [2] (K-Ras substrates), 40.11. The “continuous serum level at which significant inhibition of tumor growth was seen” value in [3] (7 day treatment) is given as “above 100 ng/mL”. Moreover, the “inhibition of Ras farnesylation at which significant inhibition of tumor growth was seen” value in data set [3] (tumor tissue) was “at least 50%”.
For `CO/C1=C\C(C)=C\[C@@H](C)[C@@H](O)[C@@H](C)C/C(C)=C/C=C/[C@H](OC)[C@@H]([C@@H](C)[C@@H](O)[C@H](C)[C@@]2(O)C[C@@H](O)[C@H](C)[C@@H](C(C)C)O2)OC1=O` [bafilomycin A1, reference compound], in the data set on LC3-II, the “increase in the amount of LC3-II” value came out at 100%.
Consider `Cn1cncc1[C@@](N)(c1ccc(Cl)cc1)c1ccc2c(c1)c(-c1cccc(Cl)c1)cc(=O)n2C` [Zarnestra®, (R)-6-(Amino(4-chlorophenyl)(1-methyl-1H-imidazol-5-yl)methyl)-4-(3-chlorophenyl)-1-methyl-2(1H)-quinolinone, reference compound], for which, in the data set on α-synuclein, the “levels of α-synuclein in the hippocampus” value was “decrease” and the “α-synuclein inclusions vs. transgenic animals administered vehicle alone” value is “fewer”. Moreover, the t1/2z in data set [4] (Blood) is on record as 1.31 h. In data set [4] (Brain), the “AUC(0-t)” value was determined as 44.50 ng·h/g, the “AUC(0-[…])” value is 86.86 ng·h/g and the t1/2z is on record as 8.10 h. Also, in the data set on LC3 mRNA, the “LC3 mRNA level” value is reported as “also works; also recorded: upregulated”. The “LC3 mRNA level” value in the data set with LC3 mRNA (listed as tipifarnib) is reported as “increased”. Also, the “punctate LC3 immunostaining (number of LC3-positive puncta)” value with LC3 is on record as “distinct increase”. Also, the “punctate LC3 immunostaining (number of LC3-positive puncta)” value in the data set with LC3 (listed as tipifarnib) is “increased”. In addition, the “mRNA levels of a set of autophagy-related genes” value in the data set on Atg1 is “unaffected”. In addition, on GGTase [5], the GGTase inhibitory activity result is on record as “little to no”.
